Here are results for 26 molecules from ChEMBL document CHEMBL5291721, “A preclinical secondary pharmacology resource illuminates target-adverse drug reaction associations of marketed drugs” (Nat Commun, 2023).

The target in test [1] is Sodium-dependent noradrenaline transporter (Homo sapiens, UniProt P23975).
The target in test [2] is Gamma-aminobutyric acid receptor subunit alpha-1 (Rattus norvegicus, UniProt P62813).
Test [3] concerns the target cGMP-inhibited 3',5'-cyclic phosphodiesterase 3A (Homo sapiens, UniProt Q14432). It counts as functional.
The target of test [4] is T1, Alpha-2C adrenergic receptor (Homo sapiens, UniProt P18825).
T1 sequence (P18825 whole entry): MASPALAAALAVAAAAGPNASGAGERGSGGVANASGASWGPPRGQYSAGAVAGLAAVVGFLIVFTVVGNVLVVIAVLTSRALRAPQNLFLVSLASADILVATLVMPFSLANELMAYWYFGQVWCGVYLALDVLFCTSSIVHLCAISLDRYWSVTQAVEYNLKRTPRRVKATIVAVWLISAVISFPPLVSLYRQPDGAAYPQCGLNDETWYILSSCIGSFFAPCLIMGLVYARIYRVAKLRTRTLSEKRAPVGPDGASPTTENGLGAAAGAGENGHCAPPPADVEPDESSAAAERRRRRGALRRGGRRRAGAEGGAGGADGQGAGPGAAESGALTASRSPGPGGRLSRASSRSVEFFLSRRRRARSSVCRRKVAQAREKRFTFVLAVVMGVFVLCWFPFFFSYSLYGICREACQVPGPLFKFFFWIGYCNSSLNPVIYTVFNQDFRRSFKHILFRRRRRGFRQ
It counts as functional.

The next test has as its target Vasopressin V2 receptor (Homo sapiens, UniProt P30518).
Test [5] has as its target 5-hydroxytryptamine receptor 2B (Homo sapiens, UniProt P41595). In kind it is functional, cell-based.
Test [6] concerns the target T2, Mu-type opioid receptor (Homo sapiens, UniProt P35372).
The target in test [7] is T3, Alpha-1A adrenergic receptor (Homo sapiens, UniProt P35348).
T3 sequence (P35348 whole entry): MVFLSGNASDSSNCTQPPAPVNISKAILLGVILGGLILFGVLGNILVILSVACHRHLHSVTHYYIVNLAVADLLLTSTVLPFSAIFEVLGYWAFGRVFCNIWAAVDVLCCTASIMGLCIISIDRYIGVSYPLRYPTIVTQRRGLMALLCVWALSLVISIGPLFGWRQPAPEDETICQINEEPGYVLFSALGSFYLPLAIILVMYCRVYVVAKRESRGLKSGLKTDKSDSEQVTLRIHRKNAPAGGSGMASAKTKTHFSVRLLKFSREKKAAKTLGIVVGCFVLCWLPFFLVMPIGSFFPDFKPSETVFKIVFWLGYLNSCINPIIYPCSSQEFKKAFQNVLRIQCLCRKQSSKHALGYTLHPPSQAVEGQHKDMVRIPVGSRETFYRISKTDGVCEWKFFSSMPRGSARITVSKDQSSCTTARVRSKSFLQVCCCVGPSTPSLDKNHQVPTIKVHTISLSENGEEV
In kind it is functional, cell-based.

For test [8], the target named is T4, Muscarinic acetylcholine receptor M2 (Homo sapiens, UniProt P08172).
T4 sequence (P08172 whole entry): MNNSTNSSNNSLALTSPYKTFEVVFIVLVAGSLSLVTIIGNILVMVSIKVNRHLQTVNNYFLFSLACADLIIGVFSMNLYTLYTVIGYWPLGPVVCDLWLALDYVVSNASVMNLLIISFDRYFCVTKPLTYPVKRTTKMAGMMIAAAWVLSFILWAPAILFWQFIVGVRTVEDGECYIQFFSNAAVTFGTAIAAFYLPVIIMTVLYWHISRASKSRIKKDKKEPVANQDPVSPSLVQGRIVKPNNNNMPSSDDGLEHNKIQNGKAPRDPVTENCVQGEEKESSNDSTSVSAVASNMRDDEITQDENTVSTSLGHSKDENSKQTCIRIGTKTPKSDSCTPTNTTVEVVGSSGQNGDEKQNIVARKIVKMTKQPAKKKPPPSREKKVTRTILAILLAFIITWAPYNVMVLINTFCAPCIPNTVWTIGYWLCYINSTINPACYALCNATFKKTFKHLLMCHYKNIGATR
In kind it is functional, cell-based.

Test [9] concerns the target T2, Mu-type opioid receptor. Kind of test: biochemical. In kind it is functional.
Note: assay procedure not described here.

Chain of 5-hydroxytryptamine receptor 2B (P41595 whole entry): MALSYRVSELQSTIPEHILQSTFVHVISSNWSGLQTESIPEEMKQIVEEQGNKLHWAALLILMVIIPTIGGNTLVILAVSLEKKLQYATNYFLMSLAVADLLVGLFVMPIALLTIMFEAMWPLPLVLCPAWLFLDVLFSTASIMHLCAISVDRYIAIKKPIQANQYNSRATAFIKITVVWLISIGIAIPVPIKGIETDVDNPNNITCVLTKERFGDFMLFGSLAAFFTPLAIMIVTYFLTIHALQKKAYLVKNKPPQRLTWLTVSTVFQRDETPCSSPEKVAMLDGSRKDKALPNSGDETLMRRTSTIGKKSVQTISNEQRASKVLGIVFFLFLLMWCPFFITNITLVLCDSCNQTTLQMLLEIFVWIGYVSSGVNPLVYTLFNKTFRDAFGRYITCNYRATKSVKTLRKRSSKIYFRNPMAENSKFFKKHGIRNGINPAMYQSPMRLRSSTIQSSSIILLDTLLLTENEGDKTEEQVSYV
Chain of Gamma-aminobutyric acid receptor subunit alpha-1 (P62813 whole entry): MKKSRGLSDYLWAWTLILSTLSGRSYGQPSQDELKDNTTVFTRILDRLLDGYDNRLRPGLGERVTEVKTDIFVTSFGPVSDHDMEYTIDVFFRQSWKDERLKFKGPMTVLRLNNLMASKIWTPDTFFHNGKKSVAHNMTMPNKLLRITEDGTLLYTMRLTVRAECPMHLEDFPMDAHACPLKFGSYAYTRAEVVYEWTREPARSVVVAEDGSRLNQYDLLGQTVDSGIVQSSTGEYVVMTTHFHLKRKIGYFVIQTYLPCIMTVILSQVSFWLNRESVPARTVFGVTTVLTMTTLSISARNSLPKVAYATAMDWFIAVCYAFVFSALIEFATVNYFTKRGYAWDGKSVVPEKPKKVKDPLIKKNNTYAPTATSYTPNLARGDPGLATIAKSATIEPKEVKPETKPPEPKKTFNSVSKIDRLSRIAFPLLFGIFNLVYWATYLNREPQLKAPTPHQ
T2 sequence (P35372 whole entry): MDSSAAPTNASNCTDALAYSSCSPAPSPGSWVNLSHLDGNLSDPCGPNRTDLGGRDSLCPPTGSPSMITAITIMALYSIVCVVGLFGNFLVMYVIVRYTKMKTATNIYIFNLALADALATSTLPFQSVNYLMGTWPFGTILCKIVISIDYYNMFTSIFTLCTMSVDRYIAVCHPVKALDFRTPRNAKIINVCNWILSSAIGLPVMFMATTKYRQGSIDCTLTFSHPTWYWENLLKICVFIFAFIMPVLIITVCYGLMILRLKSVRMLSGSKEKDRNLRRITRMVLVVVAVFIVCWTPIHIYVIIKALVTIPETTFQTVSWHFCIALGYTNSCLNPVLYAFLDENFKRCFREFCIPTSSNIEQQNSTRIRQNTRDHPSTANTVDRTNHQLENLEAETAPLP
Chain of cGMP-inhibited 3',5'-cyclic phosphodiesterase 3A (Q14432 whole entry): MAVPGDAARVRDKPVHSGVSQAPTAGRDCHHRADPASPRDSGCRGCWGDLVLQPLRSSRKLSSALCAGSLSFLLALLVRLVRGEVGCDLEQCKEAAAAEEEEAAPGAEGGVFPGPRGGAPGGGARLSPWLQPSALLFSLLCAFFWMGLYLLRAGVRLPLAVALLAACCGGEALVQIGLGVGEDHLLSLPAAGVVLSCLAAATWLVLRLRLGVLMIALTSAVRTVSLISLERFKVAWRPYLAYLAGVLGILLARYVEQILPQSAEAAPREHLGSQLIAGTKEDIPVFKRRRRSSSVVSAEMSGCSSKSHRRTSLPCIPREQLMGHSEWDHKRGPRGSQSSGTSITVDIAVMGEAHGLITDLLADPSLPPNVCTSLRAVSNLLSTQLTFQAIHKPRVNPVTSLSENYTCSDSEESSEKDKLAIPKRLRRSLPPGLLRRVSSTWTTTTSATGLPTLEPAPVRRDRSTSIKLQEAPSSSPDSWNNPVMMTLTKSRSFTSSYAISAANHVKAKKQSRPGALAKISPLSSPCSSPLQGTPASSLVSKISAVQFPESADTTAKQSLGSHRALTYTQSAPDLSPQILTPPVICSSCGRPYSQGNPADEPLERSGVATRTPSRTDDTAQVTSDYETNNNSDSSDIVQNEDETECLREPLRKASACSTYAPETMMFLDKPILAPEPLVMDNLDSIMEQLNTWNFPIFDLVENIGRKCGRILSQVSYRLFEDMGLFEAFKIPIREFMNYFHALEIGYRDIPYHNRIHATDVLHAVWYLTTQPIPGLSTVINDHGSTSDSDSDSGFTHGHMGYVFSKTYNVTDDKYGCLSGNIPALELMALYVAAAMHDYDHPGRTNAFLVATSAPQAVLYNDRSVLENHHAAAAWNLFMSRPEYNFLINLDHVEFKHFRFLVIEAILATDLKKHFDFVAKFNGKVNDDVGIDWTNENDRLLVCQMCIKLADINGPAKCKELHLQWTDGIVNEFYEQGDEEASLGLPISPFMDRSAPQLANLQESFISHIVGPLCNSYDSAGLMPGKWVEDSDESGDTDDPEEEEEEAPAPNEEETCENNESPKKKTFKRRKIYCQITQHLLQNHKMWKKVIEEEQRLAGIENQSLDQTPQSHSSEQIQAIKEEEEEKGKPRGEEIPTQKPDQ
Chain of Sodium-dependent noradrenaline transporter (P23975 whole entry): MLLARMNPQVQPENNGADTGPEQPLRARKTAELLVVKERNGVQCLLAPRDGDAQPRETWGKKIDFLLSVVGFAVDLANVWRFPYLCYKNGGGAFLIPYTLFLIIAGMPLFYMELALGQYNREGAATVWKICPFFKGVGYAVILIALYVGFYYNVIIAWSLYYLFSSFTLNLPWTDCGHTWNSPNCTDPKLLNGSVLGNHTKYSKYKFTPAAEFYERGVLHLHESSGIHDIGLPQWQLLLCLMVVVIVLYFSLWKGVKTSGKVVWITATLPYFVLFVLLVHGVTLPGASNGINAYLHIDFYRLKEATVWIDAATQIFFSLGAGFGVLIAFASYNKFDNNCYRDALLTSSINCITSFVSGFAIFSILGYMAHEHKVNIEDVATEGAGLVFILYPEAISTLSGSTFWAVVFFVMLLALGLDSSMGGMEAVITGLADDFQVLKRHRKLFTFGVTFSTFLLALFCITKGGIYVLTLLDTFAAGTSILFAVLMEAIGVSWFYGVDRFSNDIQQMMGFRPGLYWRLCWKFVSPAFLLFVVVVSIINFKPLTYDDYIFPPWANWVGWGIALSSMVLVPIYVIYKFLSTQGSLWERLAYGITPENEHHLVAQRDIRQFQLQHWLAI
Chain of Vasopressin V2 receptor (P30518 whole entry): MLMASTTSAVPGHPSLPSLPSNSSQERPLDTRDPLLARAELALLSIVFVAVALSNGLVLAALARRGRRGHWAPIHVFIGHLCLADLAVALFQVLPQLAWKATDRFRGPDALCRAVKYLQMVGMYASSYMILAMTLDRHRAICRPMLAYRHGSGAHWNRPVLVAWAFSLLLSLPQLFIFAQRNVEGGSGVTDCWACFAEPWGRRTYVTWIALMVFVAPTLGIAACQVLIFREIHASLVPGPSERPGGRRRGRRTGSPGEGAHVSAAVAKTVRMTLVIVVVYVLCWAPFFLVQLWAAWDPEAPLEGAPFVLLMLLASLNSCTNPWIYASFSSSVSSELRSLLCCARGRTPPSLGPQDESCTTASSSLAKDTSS

As a reminder, the AC50 is the concentration giving half of the maximal activity seen. Turning to `CC(COc1ccccc1)NC(C)C(O)c1ccc(O)cc1` (configuration not stated) [ISOXSUPRINE], the AC50 is 11.2 µM in [1] and greater than 30 µM in [2].
For `CC(C)(Oc1ccc(CCNC(=O)c2ccc(Cl)cc2)cc1)C(=O)O` [BEZAFIBRATE], the AC50 is greater than 30 µM in test [3]; greater than 10 µM in test [4]; greater than 10 µM on Vasopressin V2 receptor; greater than 10 µM in test [5]; greater than 30 µM on Mu-type opioid receptor [6]; greater than 30 µM in [7]. For the same molecule, in test [8], the AC50 is greater than 10 µM.
Take `Cc1ccccc1N1C(=O)c2cc(S(N)(=O)=O)c(Cl)cc2NC1C` (configuration not stated) [METOLAZONE]: the AC50 in test [3] is greater than 30 µM; at Mu-type opioid receptor [9] it was greater than 30 µM; in test [4] it was greater than 10 µM; at Vasopressin V2 receptor, greater than 10 µM; in [5], greater than 10 µM; at Mu-type opioid receptor [6], greater than 30 µM. The molecule also displayed an AC50 in [8] greater than 10 µM.
In the case of `Cc1ccc(S(=O)(=O)NC(=O)NC2CCCCC2)cc1` [GLYCYCLAMIDE], the AC50 in [1] and in test [2] was greater than 30 µM each time.
For `C[C@]12C=CC(=O)C=C1CC[C@@H]1[C@@H]2CC[C@]2(C)OC(=O)CC[C@@H]12` [TESTOLACTONE], the AC50 was greater than 30 µM in test [3]; greater than 30 µM at Mu-type opioid receptor [9]; greater than 10 µM in [4]; greater than 10 µM at Vasopressin V2 receptor; greater than 30 µM in test [5]; greater than 30 µM on Mu-type opioid receptor [6]. The AC50 in [7] is greater than 30 µM; in [8] it was greater than 10 µM.
For `COc1ccc([C@@H]2CC(=O)c3c(O)cc(O)cc3O2)cc1O` [HESPERETIN], the AC50 in test [3] was 21 µM; on Mu-type opioid receptor [9] it was greater than 30 µM; in test [4], greater than 10 µM; at Vasopressin V2 receptor, greater than 10 µM; in [5], greater than 10 µM; at Mu-type opioid receptor [6], greater than 30 µM. Moreover, the AC50 in test [8] is greater than 10 µM.
As to `N[C@@H](Cc1ccccc1)C(=O)O` [PHENYLALANINE], the half-maximal activity concentration (AC50) in test [1] and in test [2] was greater than 30 µM throughout.
With `O=C1c2ccccc2C(=O)C1c1ccccc1` [PHENINDIONE], the AC50 in [3] is greater than 30 µM; in [4], greater than 10 µM; on Vasopressin V2 receptor, greater than 10 µM; in test [5], greater than 10 µM; on Mu-type opioid receptor [6] it was greater than 30 µM; in test [7], greater than 30 µM. This molecule also yielded an AC50 in [8] greater than 10 µM.
With `CCC1(c2ccc(N)cc2)CCC(=O)NC1=O` (configuration not stated) [AMINOGLUTETHIMIDE], the AC50 in test [3] was 10 µM; at Mu-type opioid receptor [9] it was greater than 30 µM; in [4], greater than 30 µM; on Vasopressin V2 receptor, greater than 30 µM; in [5], greater than 30 µM; at Mu-type opioid receptor [6], greater than 30 µM. For the same molecule, the AC50 in test [7] and in test [8] was greater than 30 µM in each case.
For the molecule `CC(=O)[C@H]1CC[C@H]2[C@@H]3C=CC4=CC(=O)CC[C@@]4(C)[C@@H]3CC[C@]12C` [DYDROGESTERONE], the AC50 in [1] and in [2] was greater than 30 µM in each case.
Take `Cc1cn([C@H]2O[C@@H](CO)[C@H](O)[C@H]2F)c(=O)[nH]c1=O` [CLEVUDINE]: the AC50 in test [1] and in test [2] was greater than 30 µM each time.
As to `CN(Cc1cnc2nc(N)nc(N)c2n1)c1ccc(C(=O)N[C@@H](CCC(=O)O)C(=O)O)cc1` [METHOTREXATE], the AC50 is greater than 30 µM in test [3]; greater than 10 µM in [4]; greater than 30 µM on Vasopressin V2 receptor; greater than 10 µM in test [5]; greater than 30 µM on Mu-type opioid receptor [6]; greater than 30 µM in [7]. The molecule further showed an AC50 in test [8] greater than 10 µM.
As for `COc1ccc2c(C(=S)N(C)CC(=O)O)cccc2c1C(F)(F)F` [TOLRESTAT], the AC50 in test [1] and in test [2] was greater than 30 µM throughout.
For the molecule `NNCCc1ccccc1` [PHENELZINE], the AC50 in [1] was 10.8 µM; in test [2], greater than 30 µM.
`CN(C)CCCN1c2ccccc2CCc2ccccc21` [IMIPRAMINE]: the AC50 in [3] is greater than 10 µM; on Mu-type opioid receptor [9], 28 µM; in [4], 2.1 µM; on Vasopressin V2 receptor, greater than 30 µM; in [5], greater than 10 µM; on Mu-type opioid receptor [6], 8.1 µM. The AC50 in test [7] was greater than 30 µM; in [8] it was 4.3 µM.
Turning to `CCC[C@H](N[C@@H](C)C(=O)N1[C@H](C(=O)O)C[C@@H]2CCCC[C@@H]21)C(=O)OCC` [PERINDOPRIL], the AC50 in test [1] and in test [2] was greater than 30 µM throughout.
`CC(O)(P(=O)(O)O)P(=O)(O)O` [ETIDRONIC ACID]: the AC50 in test [1] and in test [2] was greater than 30 µM each time.
`CN[C@@H](C)[C@@H](O)c1ccccc1` [PSEUDOEPHEDRINE]: the AC50 was greater than 30 µM in test [3]; greater than 30 µM on Mu-type opioid receptor [9]; 13 µM in [4]; greater than 30 µM on Vasopressin V2 receptor; greater than 10 µM in [5]; greater than 30 µM at Mu-type opioid receptor [6]. Moreover, in test [8], the AC50 is greater than 10 µM.
As for `CC1(C)S[C@@H]2[C@H](/N=C/N3CCCCCC3)C(=O)N2[C@H]1C(=O)O` [AMDINOCILLIN], the AC50 in [1] and in test [2] was greater than 30 µM in each case.
With `CCC[C@@H]1C[C@@H](C(=O)N[C@@H]([C@H]2O[C@H](SC)[C@H](O)[C@@H](O)[C@H]2O)[C@@H](C)O)N(C)C1` [LINCOMYCIN], the AC50 was greater than 30 µM in test [3]; greater than 30 µM on Mu-type opioid receptor [9]; greater than 10 µM in [4]; greater than 10 µM on Vasopressin V2 receptor; greater than 30 µM in test [5]; greater than 30 µM on Mu-type opioid receptor [6]. Besides, the AC50 in test [7] was greater than 30 µM; in [8] it was greater than 10 µM.
Take `C/C=C(/C(=C/C)c1ccc(O)cc1)c1ccc(O)cc1` [DIENESTROL]: the AC50 in [3] is greater than 30 µM; at Mu-type opioid receptor [9], greater than 30 µM; in test [4], greater than 10 µM; at Vasopressin V2 receptor it was greater than 10 µM; in test [5] it was greater than 10 µM; at Mu-type opioid receptor [6], greater than 30 µM. In addition, in test [8], the AC50 was greater than 10 µM.
For `Cc1ccccc1-n1c(CF)nc2ccc(N)cc2c1=O` [AFLOQUALONE], the AC50 in [3] was greater than 30 µM; at Mu-type opioid receptor [9], greater than 30 µM; in [4] it was greater than 10 µM; on Vasopressin V2 receptor, greater than 30 µM; in [5], greater than 10 µM; on Mu-type opioid receptor [6], greater than 30 µM. In test [8], this molecule returned an AC50 greater than 10 µM.
`O=C(O)c1cccnc1Nc1cccc(C(F)(F)F)c1` [NIFLUMIC ACID]: the AC50 in test [3] is greater than 30 µM; at Mu-type opioid receptor [9], greater than 30 µM; in test [4] it was greater than 10 µM; at Vasopressin V2 receptor, greater than 10 µM; in [5] it was greater than 10 µM; on Mu-type opioid receptor [6], greater than 30 µM. This molecule also returned an AC50 in test [8] greater than 10 µM.
On to `Cc1cc2c(cc1S(N)(=O)=O)S(=O)(=O)CCC2`, for which the AC50 in [1] and in test [2] was greater than 30 µM each time.
Regarding `CC(Cc1cccc(C(F)(F)F)c1)NCCOC(=O)c1ccccc1` (configuration not stated) [BENFLUOREX], the AC50 at Mu-type opioid receptor [9] was 11 µM; in test [4], 2.41 µM; on Vasopressin V2 receptor, greater than 30 µM; in test [5], greater than 30 µM; on Mu-type opioid receptor [6] it was 17 µM; in [7], greater than 30 µM. Also, in test [8], the AC50 is greater than 30 µM.
With `COC(=O)[C@H]1[C@H]2C[C@@H]3c4[nH]c5cc(OC)ccc5c4CCN3C[C@H]2C[C@@H](OC(=O)c2cc(OC)c(OC)c(OC)c2)[C@@H]1OC` [RESERPINE], the AC50 in test [3] was greater than 30 µM; at Mu-type opioid receptor [9] it was greater than 30 µM; in [1] it was 13.6 µM; in [4], greater than 30 µM; at Vasopressin V2 receptor it was greater than 10 µM; in test [5] it was greater than 10 µM. Moreover, the AC50 at Mu-type opioid receptor [6] is greater than 30 µM; in test [8], greater than 10 µM.
